Results on 22 molecules are retold here after PubChem BioAssay AID330 (DTP/NCI, 2004).

The subject of the assay is P388 leukemia ip, CD2F1 mice, survival T/C. Description: NCI In Vivo Anticancer Drug Screen. Data for tumor model P388 Leukemia (intraperitoneal) in CD2F1 (CDF1) mice. Conditions: endpoint: median survival time, higher = longer survival. The method in brief: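 Mice carrying the transplanted tumor received test compound or vehicle. Survival was recorded in each group, and the value is the treated-group measurement divided by that of the vehicle-treated control group.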

Where [1] appears, read: dose: 50.0 mg/kg/injection, schedule: Q01DX009 (ip), vehicle: Klucel (hydroxypropylcellulose) (HPC).
The mark [2] stands for this setting: dose: 100.0 mg/kg/injection, schedule: Q01DX009 (ip), vehicle: Klucel (hydroxypropylcellulose) (HPC).
[3] abbreviates: dose: 200.0 mg/kg/injection, schedule: Q01DX009 (ip), vehicle: Klucel (hydroxypropylcellulose) (HPC).
The mark [4] stands for this setting: dose: 12.5 mg/kg/injection, schedule: Q01DX009 (ip), vehicle: saline.
Setting [5] is: dose: 25.0 mg/kg/injection, schedule: Q01DX009 (ip), vehicle: saline.
The mark [6] stands for this setting: dose: 50.0 mg/kg/injection, schedule: Q01DX009 (ip), vehicle: saline.
[7] abbreviates: dose: 100.0 mg/kg/injection, schedule: Q01DX009 (ip), vehicle: saline.
Setting [8] is: dose: 200.0 mg/kg/injection, schedule: Q01DX009 (ip), vehicle: saline.
Where [9] appears, read: dose: 400.0 mg/kg/injection, schedule: Q01DX009 (ip), vehicle: saline.
Setting [10] is: dose: 50.0 mg/kg/injection, schedule: Q01DX005 (ip), vehicle: saline.
Setting [11] is: dose: 100.0 mg/kg/injection, schedule: Q01DX009 (ip), vehicle: saline with Tween-80.
Setting [12] is: dose: 200.0 mg/kg/injection, schedule: Q01DX009 (ip), vehicle: saline with Tween-80.
[13] abbreviates: dose: 100.0 mg/kg/injection, schedule: Q01DX001 (ip), vehicle: saline with Tween-80.
The mark [14] stands for this setting: dose: 200.0 mg/kg/injection, schedule: Q01DX001 (ip), vehicle: saline with Tween-80.
[15] abbreviates: dose: 400.0 mg/kg/injection, schedule: Q01DX001 (ip), vehicle: saline with Tween-80.

Values joined by “and” are separate entries in the source; they are usually repeats but may differ in a detail not shown here. Equal entries are not always repeated. Toxic doses and inconclusive results are not listed.

`O=c1oc(-c2ccccc2)nnc1-c1ccccc1`: the T/C was 100 % of control under setting [1], 101 % of control under setting [2] and 107 % of control under setting [3].

Consider `Nc1ccc(-c2csc(COc3ccccc3)n2)cc1`, for which the T/C is, setting by setting: under setting [2], 106 % of control; under setting [3], 103 % of control.

As to `NC(=O)c1cc([N+](=O)[O-])cc([N+](=O)[O-])c1`, the T/C by setting is: (dose: 25.0 mg/kg/injection, schedule: Q01DX009 (ip), vehicle: Klucel (hydroxypropylcellulose) (HPC)) 103 % of control; under setting [1], 88 % of control; under setting [2], 91 % of control.

For `O=[N+]([O-])c1ccc(S(=O)(=O)Cc2ccccc2)c2nonc12`, the T/C reads like this: (dose: 3.12 mg/kg/injection, schedule: Q01DX009 (ip), vehicle: saline with Tween-80) 99 % of control; (dose: 6.25 mg/kg/injection, schedule: Q01DX009 (ip), vehicle: saline with Tween-80) 107 % of control; (dose: 12.5 mg/kg/injection, schedule: Q01DX009 (ip), vehicle: saline with Tween-80) 100 % of control.

With `CO[C@@]1([C@@H](Cl)c2ccccc2)C(=O)N(C)/C(=C\c2ccccc2)C(=O)N1C`, the T/C (dose: 60.0 mg/kg/injection, schedule: Q01DX005 (ip), vehicle: Klucel (hydroxypropylcellulose) (HPC)) is 105 % of control; the T/C (dose: 120.0 mg/kg/injection, schedule: Q01DX005 (ip), vehicle: Klucel (hydroxypropylcellulose) (HPC)) was 92 % of control; the T/C (dose: 240.0 mg/kg/injection, schedule: Q01DX005 (ip), vehicle: Klucel (hydroxypropylcellulose) (HPC)) was 97 % of control.

Regarding `O=C(O)CNCC(=O)O`, the T/C reads like this: under setting [4], 94 % of control; under setting [5], 99 % of control; under setting [6], 93 % of control; under setting [7], 100 % of control and 98 % of control; under setting [8], 100 % of control; under setting [9], 90 % of control.

Consider `COC(=O)c1cc(-c2ccc(F)cc2)[nH]c(=O)c1C#N`, for which the T/C (dose: 60.0 mg/kg/injection, schedule: Q01DX005 (ip), vehicle: saline with Tween-80) is 97 % of control; the T/C (dose: 120.0 mg/kg/injection, schedule: Q01DX005 (ip), vehicle: saline with Tween-80) was 106 % of control; the T/C (dose: 240.0 mg/kg/injection, schedule: Q01DX005 (ip), vehicle: saline with Tween-80) was 104 % of control.

With `Cc1cn(CCCSCC2OC3OC4C(CO)OC(OC5C(CO)OC(OC6C(CO)OC(OC7C(CO)OC(OC8C(CO)OC(OC9C(CO)OC(OC2C(O)C3O)C(O)C9O)C(O)C8O)C(O)C7O)C(O)C6O)C(O)C5O)C(O)C4O)c(=O)[nH]c1=O` (stereo not given), the T/C is, setting by setting: under setting [10], 103 % of control; (dose: 100.0 mg/kg/injection, schedule: Q01DX005 (ip), vehicle: saline) 100 % of control; (dose: 200.0 mg/kg/injection, schedule: Q01DX005 (ip), vehicle: saline) 98 % of control.

On to `CCOC(=O)c1c(C)c(-c2ccccc2)c(-c2ccccc2)c(C)c1-c1ccccc1`, for which the T/C is 97 % of control (dose: 50.0 mg/kg/injection, schedule: Q01DX009 (ip), vehicle: saline with Tween-80); 100 % of control under setting [11]; 92 % of control under setting [12].

With `[NH-]C(CCC(N)=O)C(=O)O.[NH-]C(CCCCN)C(=O)O.[Zn+2]` (stereo not given), the T/C runs as follows: (dose: 12.5 mg/kg/injection, schedule: Q01DX005 (ip), vehicle: saline) 102 % of control; (dose: 25.0 mg/kg/injection, schedule: Q01DX005 (ip), vehicle: saline) 105 % of control; under setting [10], 110 % of control.

Consider `C=C(CO)C(=O)OC1CC(=C)C2CC(O)C(=C)C2[C@H]2OC(=O)C(=C)C12` (stereo not given in full), for which the T/C runs as follows: (dose: 3.75 mg/kg/injection, schedule: Q01DX009 (ip), vehicle: saline) 92 % of control; (dose: 7.5 mg/kg/injection, schedule: Q01DX009 (ip), vehicle: saline) 99 % of control; (dose: 15.0 mg/kg/injection, schedule: Q01DX009 (ip), vehicle: saline) 108 % of control.

For `COc1cccc2c1C(=O)c1c(O)c3c(c(O)c1C2=O)CC(O)(/C(C)=N/NC(=S)c1ccccc1)CC3OC1CC(N)C(O)C(C)O1` (stereo not given), the T/C is 88 % of control (dose: 3.13 mg/kg/injection, schedule: Q01DX009 (ip), vehicle: other); 96 % of control (dose: 6.25 mg/kg/injection, schedule: Q01DX009 (ip), vehicle: other); 154 % of control (dose: 6.25 mg/kg/injection, schedule: Q04DX003 (ip), vehicle: saline); 103 % of control (dose: 12.5 mg/kg/injection, schedule: Q01DX009 (ip), vehicle: other); 159 % of control (dose: 12.5 mg/kg/injection, schedule: Q04DX003 (ip), vehicle: saline); 88 % of control (dose: 25.0 mg/kg/injection, schedule: Q01DX009 (ip), vehicle: other). Further, the T/C (dose: 25.0 mg/kg/injection, schedule: Q04DX003 (ip), vehicle: saline) was 166 % of control.

As for `COP(=O)(O)NS(C)(=O)=O`, the T/C under setting [5] is 100 % of control, the T/C under setting [6] is 102 % of control and the T/C under setting [7] is 103 % of control.

Consider `CCCCCCCCCCCCCCCCN(C)C(C)c1ccccc1` (stereo not given), for which the T/C (dose: 100.0 mg/kg/injection, schedule: Q04DX002 (ip), vehicle: saline with Tween-80) is 103 % of control; the T/C (dose: 200.0 mg/kg/injection, schedule: Q04DX002 (ip), vehicle: saline with Tween-80) is 101 % of control; the T/C (dose: 400.0 mg/kg/injection, schedule: Q04DX002 (ip), vehicle: saline with Tween-80) is 104 % of control.

Consider `CN1CCC(OC(N)=O)CC1`, for which the T/C under setting [7] is 100 % of control, the T/C under setting [8] was 100 % of control and the T/C under setting [9] was 104 % of control.

Turning to `CS/C(=N/N=C/c1ccc2ccccc2n1)SS/C(=N/N=C\c1ccc2ccccc2n1)SC`, the T/C is 88 % of control (dose: 50.0 mg/kg/injection, schedule: Q01DX005 (ip), vehicle: saline with Tween-80); 91 % of control (dose: 100.0 mg/kg/injection, schedule: Q01DX005 (ip), vehicle: saline with Tween-80); 104 % of control (dose: 200.0 mg/kg/injection, schedule: Q01DX005 (ip), vehicle: saline with Tween-80).

For the molecule `CCn1c2ccc(NC(=O)OC(C)C)cc2c2c3[nH]c(=O)c4cccn4c3ccc21`, the T/C under setting [13] was 87 % of control, the T/C under setting [14] was 87 % of control and the T/C under setting [15] was 92 % of control.

As to `C[N+]1(Cc2ccccc2)C2CCC1C(CCl)C(O)C2` (stereo not given), the T/C (dose: 3.12 mg/kg/injection, schedule: Q01DX009 (ip), vehicle: saline) was 111 % of control; the T/C (dose: 6.25 mg/kg/injection, schedule: Q01DX009 (ip), vehicle: saline) is 115 % of control; the T/C under setting [4] was 101 % of control and 104 % of control.

Regarding `NCc1cc(=O)[nH]o1`, the T/C was 89 % of control under setting [6] and 92 % of control under setting [7].

Take `CN(NC(=O)CCl)c1ccc([N+](=O)[O-])cc1[N+](=O)[O-]`: the T/C under setting [11] was 118 % of control; the T/C under setting [12] is 108 % of control; the T/C (dose: 400.0 mg/kg/injection, schedule: Q01DX009 (ip), vehicle: saline with Tween-80) is 94 % of control.

In the case of `C[N+](C)(C[Si](C)(C)C)C1CCCCCCCCCCC1`, the T/C (dose: 15.0 mg/kg/injection, schedule: Q01DX005 (ip), vehicle: saline with Tween-80) was 102 % of control.

On to `O=c1c2cocc2c(O)c2n1Cc1cc3ccccc3nc1-2`, for which the T/C (dose: 50.0 mg/kg/injection, schedule: Q01DX001 (ip), vehicle: saline with Tween-80) is 100 % of control and 101 % of control; the T/C under setting [13] is 99 % of control and 110 % of control and 120 % of control; the T/C under setting [14] is 99 % of control and 110 % of control and 120 % of control; the T/C under setting [15] is 100 % of control and 102 % of control and 112 % of control.
